Measurements reported in PMC4427029 (Cell, 2015).
Where two headings read alike, the source gives them in different places.

Legend:
AT1R = details: cited from earlier work
AT1R single mutants [1] = experiment: Ligand binding assays on AT1R single mutants, COS-1 cell membranes; details: residues Tyr35, Trp84, Arg167 and Lys199
AT1R single mutants [2] = molecular target: T1, AT1R single mutants (Homo sapiens, UniProt P30556, P285A); experiment: as above; details: Pro285Ala mutant
T1 sequence (P30556 1-359 P285A): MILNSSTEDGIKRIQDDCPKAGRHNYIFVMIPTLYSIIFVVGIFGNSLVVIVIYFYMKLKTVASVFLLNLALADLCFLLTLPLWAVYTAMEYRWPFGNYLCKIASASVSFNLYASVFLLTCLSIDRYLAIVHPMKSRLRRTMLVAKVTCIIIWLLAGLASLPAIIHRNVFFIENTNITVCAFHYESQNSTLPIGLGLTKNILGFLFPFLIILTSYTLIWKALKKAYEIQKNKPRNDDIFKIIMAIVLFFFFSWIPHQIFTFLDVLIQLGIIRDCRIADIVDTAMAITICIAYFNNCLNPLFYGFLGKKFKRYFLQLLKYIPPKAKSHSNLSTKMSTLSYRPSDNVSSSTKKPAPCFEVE

Q: For `CCCCc1nc(Cl)c(CO)n1Cc1ccc(-c2ccccc2-c2nn[nH]n2)cc1` [Losartan, losartan], which “binding affinity to AT1R compared to the later developed ARBs” value (AT1R; ref Miura et al., 2011) is on record?
A: lower

Q: And the mode of antagonism (AT1R; ref Miura et al., 2011)?
A: surmountable antagonist

Q: Which “potency and duration compared with losartan” value (AT1R; ref Junggren et al., 1996) does the source give for `CCc1cc2c(c(CC)n1)CCC(=O)N2Cc1ccc(-c2ccccc2-c2nn[nH]n2)cc1` [ZD7155] here?
A: more potent and longer-lasting

Q: Which results are given for `CCOc1nc2cccc(C(=O)O)c2n1Cc1ccc(-c2ccccc2-c2nnn[nH]2)cc1` [candesartan]?
A: dissociation rate from AT1R (AT1R; ref Takezako et al., 2004): slow; mode of antagonism (AT1R; ref Takezako et al., 2004): insurmountable inverse agonist; role of residues for binding (mutagenesis) (AT1R single mutants [1]): critical

Q: For `CCCCc1ncc(/C=C(\Cc2cccs2)C(=O)O)n1Cc1ccc(C(=O)O)cc1` [eprosartan], which “change of binding affinity at mutant” value (AT1R single mutants [2]) is on record?
A: strong decrease

Q: Which “role of residues for binding (mutagenesis)” value (AT1R single mutants [1]) does the source give for [Sar^1, Ile^8]-AngII here?
A: critical
